From patent US20240316084A1, “COMPOSITIONS FOR USE IN PROMOTING ACCELERATED BUTYRATE PRODUCTION IN YOUNG CHILDREN” (SOCIETE DES PRODUITS NESTLE S.A., priority 2020, published 2024)

What was measured:
Type in all cases: cell-based, human
[1] = system: gut microbiota of an infant; test: long term SHIME experiment with infant fecal samples (Example 1); conditions: for Actinobacteria population (Abundance), colon model / butyrate concentration in colon model: Infant; for increase of butyrate production: infant gut microbiota, three weeks of treatment
Procedure: (§1) The model of the human gastrointestinal tract used was the SHIME®. The first two reactors are of the fill-and-draw principle to simulate different steps in food uptake and digestion, with peristaltic pumps adding a defined amount of SHIME® feed (140 mL 3×/day) and pancreatic and bile liquid (60 mL 3×/day), respectively to the stomach and small intestine compartment and emptying the respective reactors after specified intervals. The last three compartments simulate the large intestine. The SHIME® experiment for this study consisted of three stages: • Stabilization period: After inoculation of the colon reactors with a fresh faecal sample, a two-week stabilization period allowed the microbial community to differentiate in the different reactors depending on the local environmental conditions. During this period a basic nutritional matrix was provided to the SHIME to support the optimum diversity of the gut microbiota originally present in the faecal inoculum. • Control period: During this two-week reference period, the standard SHIME® nutrient matrix was further added to the model for a period of 14 days. Analysis of samples in this period allows to determine the baseline microbial community composition and activity in the different reactors, which will be used as a reference for evaluating the treatment effects. • Treatment period: During this three-week period, the SHIME® reactor was operated under nominal conditions, but with a diet supplemented with the 2′FL product on top of the normal composition. The diet supplemented with 2′FL was administered 3 times a day at a concentration of 1% SCFA Production were Measured Three Times Per Week Throughout the Experiment

[2] = system: gut microbiota of a toddler; test: long term SHIME experiment with toddler samples (Example 1); conditions: for Actinobacteria population (Abundance), colon model / butyrate concentration in colon model: Toddler; for increase of butyrate production: young child, three weeks of treatment
Procedure: as §1

gut microbes = test: gas production: samples from the proximal colon vessel of the SHIME treated with lactose or 2′-FL in a penicillin tube; conditions: for gas production between 6-24 h (rank): 6-24 h timeframe, Lactose versus 2′FL; for gas production at 48 h (gaz pressure): 48 h incubation
Procedure: Gas production is a measure of fermentative activity by gut microbes. […] Gas production is not monitored in the long-term SHIME® model, given its regular flushing with N2 (to ensure anaerobiosis). Therefore, gas production was evaluated by collecting samples from the proximal colon vessel of the SHIME and treating them with lactose or 2′-FL in a penicillin tube. It was then incubated for 24 h and 48 h. The gas formation was assessed in those tubes.

[3] = system: gut microbiota of a toddler; test: long term SHIME experiment, comparison of different HMOs blends in toddler (Example 2)
Procedure: The model of the human gastrointestinal tract used was the SHIM ED. The first two reactors are of the fill-and-draw principle to simulate different steps in food uptake and digestion, with peristaltic pumps adding a defined amount of SHIME feed (140 mL 3×/day) and pancreatic and bile liquid (60 mL 3×/day), respectively to the stomach and small intestine compartment and emptying the respective reactors after specified intervals. The last three compartments simulate the large intestine. The SHIME® experiment for this study consisted of three stages: • Stabilization period: After inoculation of the colon reactors with a fresh faecal sample, a two-week stabilization period allowed the microbial community to differentiate in the different reactors depending on the local environmental conditions. During this period a basic nutritional matrix was provided to the SHIME to support the optimum diversity of the gut microbiota originally present in the faecal inoculum. • Control period: During this two-week reference period, the standard SHIME nutrient matrix was further added to the model for a period of 14 days. Analysis of samples in this period allows to determine the baseline microbial community composition and activity in the different reactors, which will be used as a reference for evaluating the treatment effects. • Treatment period: During this three-week period, the SHIME reactor was operated under nominal conditions, but with a diet supplemented with the 2′FL product on top of the normal composition or with the mixtures HMO-3 or HMO-5. The diet supplemented with HMOs administered 3 times a day at a concentration of 1%. In this experiment, also branched SCFA (b-SCFA=sum of isobutyrate, isovalerate and isocaproate) were measured which result from protein degradation and reflect proteolytic activity of the gut microbiota. A significant alterations in those metabolites was shown in fecal extracts from patients with colon cancer compared to controls Ref: Le Gall 2018 (Oncotarget, 2018, Vol. 9, (No. 70), pp: 33278-33289)

[4] = treatment week 1, diet with 1% 2′FL 3 times a day
[5] = treatment week 2, diet with 1% 2′FL 3 times a day
[6] = treatment week 3, diet with 1% 2′FL 3 times a day
[7] = distal colon, treatment week 3, diet with 1% HMOs 3 times a day

## 2′-fucosyllactose [2′-FL]
[1]; treatment week 1
  Actinobacteria population (Abundance), colon model: 31.8%
[1]; [4]
  butyrate concentration in colon model: 13.75 mM/m1
[1]; treatment week 2
  Actinobacteria population (Abundance), colon model: 46.3%
[1]; [5]
  butyrate concentration in colon model: 15.85 mM/m1
[1]; treatment week 3
  Actinobacteria population (Abundance), colon model: 43.5%
[1]; [6]
  butyrate concentration in colon model: 20.3 mM/m1
[1]; infant fecal samples, over the weeks of treatment
  increase in butyrate, onset of effect: more gradual
[1]; Distal Colon
  increase of butyrate production: 54%
[1]; Proximal Colon
  increase of butyrate production: 81%
[2]; treatment week 1
  Actinobacteria population (Abundance), colon model: 49.9%
[2]; [4]
  butyrate concentration in colon model: 28.1 mM/m1
[2]; treatment week 2
  Actinobacteria population (Abundance), colon model: 53%
[2]; [5]
  butyrate concentration in colon model: 30.2 mM/m1
[2]; treatment week 3
  Actinobacteria population (Abundance), colon model: 52.2%
[2]; [6]
  butyrate concentration in colon model: 30.3 mM/m1
[2]; toddler samples
  butyrate concentration in the colon, onset of effect: immediate increase
  butyrate concentrations, course through the treatment period: relatively stable
[2]; toddlers
  effect on Actinobacteria phylum mainly composed of Bifidobacteria: immediate effect
[2]; Distal Colon
  increase of butyrate production: 156%
[2]; Proximal Colon
  increase of butyrate production: 192%
Gut microbes
  gas production between 6-24 h (rank): lowest
Gut microbes; Infant
  gas production at 48 h (gaz pressure): 31.8 kPA
Gut microbes; Toddler
  gas production at 48 h (gaz pressure): 49.9 kPA
Gut microbes; both toddler and infant, 48 hours
  gas production over 48 hours as compared to Lactose: less gas production
Gut microbes; toddlers
  increase in gas production corresponding to accelerated butyrate production: no corresponding increase in gas production
[3]
  butyrate production in the colon, onset of effect: immediate increase
[3]; [7]
  BCFA production in toddler: 3.1 mM
  butyrate production in toddler: 29.5 mM

## OC[C@H]1O[C@@H](O[C@H]2[C@H](O)[C@@H](O)C(O)O[C@@H]2CO)[C@H](O)[C@@H](O)[C@H]1O (stereo partly shown) [Lactose, reference compound]
Gut microbes
  gas production between 6-24 h (rank): highest
Gut microbes; Infant
  gas production at 48 h (gaz pressure): 4.7 kPA
Gut microbes; Toddler
  gas production at 48 h (gaz pressure): 12.8 kPA
